A short description of data set [1]: Whole blood to plasma partitioning ratio (B/P). The conditions noted are these: human, whole blood and plasma; 37°C, 2 min incubation. The data set is classed as in vitro ADME. The procedure:
The whole blood to plasma partitioning ratio (B/P) was determined by spiking aliquots of whole blood or plasma maintained at 37°C with compound, incubating for 2 min, and then centrifuging the whole blood sample to obtain the plasma fraction. Both the plasma fraction of whole blood and the plasma control were assayed for compound by LC-MS as described above. The blood to plasma ratio was calculated from the ratio of the concentration in the plasma control (used as a surrogate for the total whole blood concentration since whole blood assays were not available for each compound) to that in the plasma fraction of whole blood. The two-minute time point was used to avoid confounding issues due to potential blood instability; rapid equilibration between plasma and erythrocytes was assumed.

The conditions of data set [2]: cited from earlier work.
Data set [3] deals with P. falciparum. Description: Parasite reduction ratio from in vitro killing rate experiments and kmax calculated from it. The data set is classed as cell-based. The note with it: kmax = 1/KZ x ln PRR + 1/48 x ln PMF, PMF = 10; PRR from in vitro experiments. An excerpt: (§1) The maximal killing rate (kmax) of the drug was assumed to follow a triangular distribution. The middle values were taken from published clinical data. Piperaquine was the only drug with no clinical studies of it administered as a monotherapy and the mode was set to a value equal to that derived from in vitro experiments. The minimum and maximum values of the triangular distribution for each anti-malarial correspond to a 50-fold decrease and 50-fold increase in the number of parasites killed every 48 hours.

For data set [4], the target named is 0.5% Albumax in RPMI (Bos taurus, UniProt P02769). Description: Binding to in vitro testing media by ultracentrifugation. The data set is classed as in vitro ADME. The conditions noted are these: ultracentrifugation 4.2 hours at 37°C. As for the experimental part:
(§2) Estimates of drug binding to the in vitro testing media (i.e. 0.5% Albumax in RPMI) and human plasma were determined using ultracentrifugation. Briefly, blank Albumax media and plasma were each spiked with compound and divided into six aliquots; three aliquots were subjected to ultracentrifugation (Beckman Optima XL-100K Ultracentrifuge, Rotor type 42.2 Ti; 223,000 x g) for 4.2 hours at 37°C to pellet the proteins whereas the remaining three aliquots served as controls and were incubated at 37°C for the same time period but without centrifugation. Controls were also stored at −20°C to confirm sample stability over the centrifugation period. Aliquots of the supernatants from the ultracentrifuged samples were first diluted 1:1 in acetonitrile, assayed by LC-MS and the responses compared to a calibration curve prepared in 50% aqueous acetonitrile to determine the unbound (i.e. free) concentration. Control concentrations in each matrix were determined using LC-MS by first precipitating the proteins with acetonitrile (3:1 acetonitrile: matrix) and then comparing the responses to a calibration curve from a blank matrix prepared using the same protein precipitation procedure. The free fraction in each matrix was then determined from the ratio of the average unbound (e.g. free) concentration to the average total concentration in each matrix.

Data set [5] has as its system human plasma protein. Description: Human plasma protein binding by ultracentrifugation. The format is in vitro ADME. The note with it: ultracentrifugation 4.2 hours at 37°C. As for the experimental part:
as §2

Data set [6] deals with fresh P. falciparum parasite isolates. Description: In vitro drug susceptibility, schizont maturation test (WHO guidelines) on fresh patient isolates. The format is cell-based. The note with it: for IC50: Plasmodium falciparum; for γ (Slope of concentration-effect curve): in vitro; for γ, mean on loge scale of log-normal distribution lnN(μ ln, σ ln): first parameter of lnN. As for the experimental part:
(§3) The fresh P. falciparum parasite isolates were obtained from blood samples of 487 patients attending outpatient clinics in Papua, Indonesia between 2004 and 2010 [26]. The in vitro drug susceptibility was determined using the World Health Organization guidelines for schizont maturation tests. The in vitro data for artemether were measured at the Swiss Tropical and Public Health Institute (Switzerland; Basel) against asynchronous intraerythrocytic forms of the P. falciparum strain NF54 (obtained from MR4) using the [3H]-hypoxanthine incorporation assay.

The subject of data set [7] is P. falciparum. The arrangement: method as in PMID 2648881. The conditions noted are these: assumed; cited from earlier work.
Data set [8] deals with P. falciparum. Description: Parasite reduction ratio from published clinical data and kmax calculated from it. The format is in vivo. The conditions noted are these: kmax = 1/KZ x ln PRR + 1/48 x ln PMF, PMF = 10.
Text: as §1

Data set [9] has as its system P. falciparum strain NF54. Description: [3H]-hypoxanthine incorporation assay, asynchronous intraerythrocytic forms. The format is cell-based. The conditions noted are these: for IC50: Plasmodium falciparum. The procedure: as §3
In data set [10] the test system is ring stage parasites. The arrangement: method as in PMID 21173254. The conditions noted are these: patients with delayed PCTs; cited from earlier work.
In data set [11] the test system is P. falciparum. The conditions noted are these: every 48 hours; published clinical data; cited from earlier work.
[12] abbreviates: geometric mean, adjusted to whole blood, lower limit a of EC50 distribution, read-out: IC50 (adjusted) concentration.
Setting [13] is: geometric mean, not corrected for binding, isolates of 487 patients, Papua, Indonesia, read-out: IC50 measured concentration.
Where [14] appears, read: not corrected for binding, from nM and molecular weight, read-out: IC50 concentration.

SMILES strings stand for the structures. Values after ≈ are worked out from the molar mass of the structure shown. Read-outs that look alike come from different tables or passages of the source. Marks after values point to notes of the source that are not given here.

Chain of 0.5% Albumax in RPMI (P02769 25-607): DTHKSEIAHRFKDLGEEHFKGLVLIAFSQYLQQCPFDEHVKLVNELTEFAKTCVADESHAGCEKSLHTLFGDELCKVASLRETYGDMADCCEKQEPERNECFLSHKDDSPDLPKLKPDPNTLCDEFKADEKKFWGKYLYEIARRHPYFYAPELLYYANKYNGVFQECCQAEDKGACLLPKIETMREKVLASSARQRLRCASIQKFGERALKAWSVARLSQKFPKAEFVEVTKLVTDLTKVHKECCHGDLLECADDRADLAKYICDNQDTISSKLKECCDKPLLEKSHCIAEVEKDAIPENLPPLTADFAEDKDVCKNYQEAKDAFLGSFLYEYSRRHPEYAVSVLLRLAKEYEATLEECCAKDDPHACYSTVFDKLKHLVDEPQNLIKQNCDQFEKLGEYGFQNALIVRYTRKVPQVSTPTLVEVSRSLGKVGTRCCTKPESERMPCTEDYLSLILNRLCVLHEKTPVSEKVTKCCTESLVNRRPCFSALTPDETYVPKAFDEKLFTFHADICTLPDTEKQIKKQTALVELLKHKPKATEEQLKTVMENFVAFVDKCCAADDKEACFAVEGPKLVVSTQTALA

On to `Clc1ccc2c(N3CCN(CCCN4CCN(c5ccnc6cc(Cl)ccc56)CC4)CC3)ccnc2c1` [PQ, piperaquine], for which, in data set [1], the blood plasma ratio at 2 min was 0.9. Further, in data set [2] (48kg individual), the “CL/F (clearance)” value is reported as 66 L/h, the “Q/F (inter-compartmental clearance)” value is recorded as 131 L/h, the “Vc/F (volume of central compartment)” value is given as 8660 L and the “Vp/F (volume of peripheral compartment)” value is reported as 24000 L. Further, the “ka (absorption rate constant)” value in data set [2] (48kg individual) was 0.717 h⁻¹. The “kmax, mode c of triangular distribution TRI(a, b, c)” value (from here on “kmax, mode c”) in data set [3] is recorded as “TRI(0.33, 0.65, 0.49)^c /h”. In data set [4], the “Binding to media of in vitro experiment (0.5% Albumax)” value (“Binding to media … (0.5% Albumax)” below) is listed as 98.1 % bound. In addition, in [5], the “Human plasma protein binding” value turned out to be 98.6 % bound. The IC50 in data set [6] (setting [12]) amounted to 11.6 ng/mL. Also, the IC50 in data set [6] (setting [13]) is 17.7 nM. Further, in data set [6] (setting [14]), the IC50 was found to be 9.46 ng/mL. For the same molecule, the “γ (Slope of concentration-effect curve)” value in [6] is reported as 3.48. Also, the “KZ (length of the killing zone)” value in [7] is 24 h.

For `CO[C@H]1O[C@@H]2O[C@@]3(C)CC[C@H]4[C@H](C)CC[C@@H]([C@H]1C)[C@@]24OO3` [ART, artemether], the blood plasma ratio at 2 min in data set [1] turned out to be 0.8. For the same molecule, in data set [8], the “kmax, mode c” value is reported as “TRI(0.12, 0.33, 0.22)^c /h”. Further, in [2], the “CL/F (clearance)” value was 180 L/h, the “V/F (volume of distribution)” value is listed as 217 L and the “ka (absorption rate constant)” value was 0.37 h⁻¹. In addition, in data set [4], the “Binding to media … (0.5% Albumax)” value came to 82.8 % bound. Also, the IC50 in data set [9] (adjusted to whole blood, lower limit a of EC50 distribution, read-out: IC50 (adjusted) concentration) worked out at 4.38 ng/mL (≈ 0.0147 µM). Further, the IC50 in [9] (not corrected for binding, read-out: IC50 concentration) turned out to be 2.64 ng/mL (≈ 0.00885 µM). For the same molecule, the “γ, mean on loge scale of log-normal distribution lnN(μ ln, σ ln)” value in data set [9] (first parameter of lnN) is recorded as “lnN(1.53, 0.31)”. Moreover, in data set [9] (in vitro), the “γ (Slope of concentration-effect curve)” value is 4.61. In data set [5], the “Human plasma protein binding” value was found to be 91.7 % bound. Further, the “KZ (length of the killing zone)” value in [7] was 38 h.

`C[C@H]1[C@H](OC(=O)CCC(=O)O)O[C@@H]2O[C@@]3(C)CC[C@H]4[C@H](C)CC[C@@H]1[C@@]24OO3` [artesunate]: the “Maximal killing rate for the ring stages, mean” value in data set [10] is given as 62 % /cycle.

In the case of `CCCCN(CCCC)CC(O)c1cc(Cl)cc2c1-c1ccc(Cl)cc1/C2=C/c1ccc(Cl)cc1` (stereo not drawn) [LF, lumefantrine], in [1], the blood plasma ratio at 2 min was 0.8. For the same molecule, the “kmax, mode c” value in data set [8] is reported as “TRI(0.18, 0.54, 0.36)^c /h”. In data set [2], the “CL/F (clearance)” value is given as 7.04 L/h, the “Q/F (inter-compartmental clearance)” value is reported as 4.08 L/h, the “Vc/F (volume of central compartment)” value is 103 L and the “Vp/F (volume of peripheral compartment)” value was 272 L. The “ka (absorption rate constant)” value in data set [2] was 0.17 h⁻¹. Also, the “Binding to media … (0.5% Albumax)” value in data set [4] came to 99.6 % bound. For the same molecule, the “Human plasma protein binding” value in data set [5] is given as 98.7 % bound. Also, in data set [11], the “PRR (parasite reduction ratio)” value is reported as 10^3. Moreover, the IC50 in data set [6] (setting [12]) was 1.75 ng/mL. In addition, the IC50 in [6] (setting [13]) is 13.4 nM. Besides, the IC50 in [6] (setting [14]) amounted to 7.1 ng/mL. Besides, in [6], the “γ, mean on loge scale of log-normal distribution lnN(μ ln, σ ln)” value is on record as “lnN (0.81, 0.58)” and the “γ (Slope of concentration-effect curve)” value was found to be 2.24. In addition, the “KZ (length of the killing zone)” value in data set [7] is 22 h.

Regarding `OC(c1cc(C(F)(F)F)nc2c(C(F)(F)F)cccc12)C1CCCCN1` (stereo not drawn) [MQ, mefloquine], the “kmax, mode c” value in [8] was “TRI(0.11, 0.46, 0.28)^c /h”. Moreover, the “V/F (volume of distribution)” value in data set [2] is listed as 10.2^f L/kg. Moreover, in data set [4], the “Binding to media … (0.5% Albumax)” value came out at 85 % bound. Further, in data set [5], the “Human plasma protein binding” value came out at 95.6 % bound. The IC50 in data set [6] (setting [12]) came out at 21 ng/mL; in data set [6] (setting [13]), 9.34 nM; in [6] (setting [14]), 3.53 ng/mL. Also, the “γ, mean on loge scale of log-normal distribution lnN(μ ln, σ ln)” value in data set [6] is on record as “lnN (0.97, 0.54)”. The “IC50 (adjusted) concentration” value in data set [6] (geometric mean, adjusted to whole blood, lower limit a of EC50 distribution) is 20.48 ng/mL (≈ 0.0541 µM). Moreover, the “γ (Slope of concentration-effect curve)” value in data set [6] is on record as 2.63. In data set [7], the “KZ (length of the killing zone)” value was 22 h.

The values are drawn from publication PMC3546862, “Assessing the utility of an anti-malarial pharmacokinetic-pharmacodynamic model for aiding drug clinical development” (Malaria Journal, 2012).
